Source: US9302999B2, “Substituted triazoles as herbicides” (E. I. DU PONT DE NEMOURS AND COMPANY, priority 2012, dated 2016)

Experiments:
Type in all cases: in vivo
[1] = tested on: barnyardgrass (Echinochloa crus-galli); assay: Test A pre-/postemergence: barnyardgrass
Source text: (§1) Seeds of barnyardgrass (Echinochloa crus-galli), crabgrass, large (large crabgrass, Digitaria sanguinalis), foxtail, giant (giant foxtail, Setaria faberii), morningglory (Ipomoea spp.), pigweed (Amaranthus retroflexus), velvetleaf (Abutilon theophrasti), wheat (Triticum aestivum), and corn (Zea mays) were planted into a blend of loam soil and sand and treated preemergence with a directed soil spray using test chemicals formulated in a non-phytotoxic solvent mixture which included a surfactant. At the same time these species were also treated with postemergence applications of test chemicals formulated in the same manner.
(§2) Plants ranged in height from two to ten cm and were in the one- to two-leaf stage for the postemergence treatment. Treated plants and untreated controls were maintained in a greenhouse for approximately ten days, after which time all treated plants were compared to untreated controls and visually evaluated for injury. Plant response ratings, summarized in Table A, are based on a 0 to 100 scale where 0 is no effect and 100 is complete control. A dash (-) response means no test result.

[2] = tested on: crabgrass, large (large crabgrass, Digitaria sanguinalis); assay: Test A pre-/postemergence: crabgrass, large
Source text: as §1, §2

[3] = tested on: foxtail, giant (giant foxtail, Setaria faberii); assay: Test A pre-/postemergence: foxtail, giant
Source text: as §1, §2

[4] = tested on: morningglory (Ipomoea spp.); assay: Test A pre-/postemergence: morningglory
Source text: as §1, §2

[5] = tested on: pigweed (Amaranthus retroflexus); assay: Test A pre-/postemergence: pigweed
Source text: as §1, §2

[6] = tested on: velvetleaf (Abutilon theophrasti); assay: Test A pre-/postemergence: velvetleaf
Source text: as §1, §2

[7] = tested on: wheat (Triticum aestivum); assay: Test A pre-/postemergence: wheat
Source text: as §1, §2

corn (Zea mays) = assay: Test A pre-/postemergence: corn
Source text: as §1, §2

[8] = Postemergence, 125 g ai/ha, 0 to 100 scale, 0 is no effect, 100 is complete control
[9] = Postemergence, 500 g ai/ha, visual rating on 0 to 100 scale (0 no effect, 100 complete control), approximately ten days
[10] = Preemergence, 125 g ai/ha, 0 to 100 scale (0 no effect, 100 complete control)
[11] = Preemergence, 500 g ai/ha, 0 to 100 scale, 0 is no effect, 100 is complete control
[12] = Preemergence, 125 g ai/ha, 0 to 100 scale where 0 is no effect and 100 is complete control
[13] = Preemergence, 500 g ai/ha, 0 to 100 scale (0 no effect, 100 complete control)
[14] = Postemergence, 1000 g ai/ha, visual rating on 0 to 100 scale (0 no effect, 100 complete control), approximately ten days
[15] = Preemergence, 1000 g ai/ha, 0 to 100 scale, 0 is no effect, 100 is complete control

| SMILES | Barnyardgrass plant response rating [1, 8] | Barnyardgrass plant response rating [1, 9] | Crabgrass, Large plant response rating [2, 8] | Crabgrass, Large plant response rating [2, 9] | Foxtail, Giant plant response rating [3, 8] | Foxtail, Giant plant response rating [3, 9] | Morningglory plant response rating [4, 8] | Morningglory plant response rating [4, 9] | Pigweed plant response rating [5, 8] | Pigweed plant response rating [5, 9] | Velvetleaf plant response rating [6, 8] | Velvetleaf plant response rating [6, 9] | Wheat plant response rating [7, 8] | Wheat plant response rating [7, 9] | Corn plant response rating (corn (Zea mays); [8]) | Corn plant response rating (corn (Zea mays); [9]) | Plant response rating, Foxtail, Giant [3, 12] | Plant response rating, Morningglory [4, 12] | Plant response rating, Pigweed [5, 12] | Plant response rating, Velvetleaf [6, 12] | also measured |
| --- | --- | --- | --- | --- | --- | --- | --- | --- | --- | --- | --- | --- | --- | --- | --- | --- | --- | --- | --- | --- | --- |
| Cc1nn(-c2ccc(C(F)(F)F)cc2)nc1Nc1cccc(C(F)(F)F)c1 [Compound 69] | 10 | 10 | 10 | 20 | 10 | 10 | 20 | 30 | 30 | 90 | 10 | 20 | 0 | 10 | 10 | 20 | – | – | – | – | Plant response rating, Barnyardgrass [1, 10]: 0; Plant response rating, Barnyardgrass [1, 11]: 0; Plant response rating, Crabgrass, Large [2, 10]: 0; Plant response rating, Crabgrass, Large [2, 11]: 10; Plant response rating, Foxtail, Giant [3, 10]: 0; Plant response rating, Foxtail, Giant [3, 11]: 0; Plant response rating, Morningglory [4, 10]: 0; Plant response rating, Morningglory [4, 11]: 0; Plant response rating, Pigweed [5, 10]: 0; Plant response rating, Pigweed [5, 11]: 10; Plant response rating, Velvetleaf [6, 10]: 0; Plant response rating, Velvetleaf [6, 11]: 0; Plant response rating, Wheat [7, 10]: 0; Plant response rating, Wheat [7, 11]: 0; Plant response rating, Corn (corn (Zea mays); [10]): 0; Plant response rating, Corn (corn (Zea mays); [11]): 0 |
| Cc1nn(-c2ccc(F)cc2)nc1Oc1cccc(C(F)(F)F)n1 [Compound 127] | 10 | 20 | 10 | 30 | 10 | 20 | 20 | 30 | 40 | 60 | 20 | 20 | 0 | 10 | 10 | 20 | 10 | 0 | 0 | 0 | Plant response rating, Barnyardgrass [1, 12]: 0; Plant response rating, Barnyardgrass [1, 13]: 10; Plant response rating, Crabgrass, Large [2, 12]: 10; Plant response rating, Crabgrass, Large [2, 13]: 40; Plant response rating, Foxtail, Giant [3, 13]: 30; Plant response rating, Morningglory [4, 13]: 0; Plant response rating, Pigweed [5, 13]: 20; Plant response rating, Velvetleaf [6, 13]: 0; Plant response rating, Wheat [7, 12]: 0; Plant response rating, Wheat [7, 13]: 0; Plant response rating, Corn (corn (Zea mays); [12]): 0; Plant response rating, Corn (corn (Zea mays); [13]): 0 |
| Cc1nn(-c2ccc(F)cc2)nc1Oc1nccc(C(F)(F)F)n1 [Compound 102] | 0 | 0 | 0 | 10 | 0 | 0 | 0 | 0 | 10 | 70 | 0 | 0 | 0 | 0 | 0 | 0 | 0 | 0 | 0 | 0 | Plant response rating, Barnyardgrass [1, 10]: 0; Plant response rating, Barnyardgrass [1, 11]: 0; Plant response rating, Crabgrass, Large [2, 10]: 0; Plant response rating, Crabgrass, Large [2, 11]: 0; Plant response rating, Foxtail, Giant [3, 11]: 0; Plant response rating, Morningglory [4, 11]: 0; Plant response rating, Pigweed [5, 11]: 0; Plant response rating, Velvetleaf [6, 11]: 0; Plant response rating, Wheat [7, 12]: 0; Plant response rating, Wheat [7, 11]: 0; Plant response rating, Corn (corn (Zea mays); [10]): 0; Plant response rating, Corn (corn (Zea mays); [11]): 0 |
| Cc1nn(-c2ccc(F)cc2)nc1Cn1nc(C(F)(F)F)cc1C [Compound 97] | – | – | – | – | – | – | – | – | – | – | – | – | – | – | – | – | – | – | – | – | Barnyardgrass plant response rating [1, 14]: 30; Barnyardgrass plant response rating [1, 15]: 30; Crabgrass, Large plant response rating [2, 14]: 60; Crabgrass, Large plant response rating [2, 15]: 40; Foxtail, Giant plant response rating [3, 14]: 20; Foxtail, Giant plant response rating [3, 15]: 20; Morningglory plant response rating [4, 14]: 40; Morningglory plant response rating [4, 15]: 0; Pigweed plant response rating [5, 14]: 60; Pigweed plant response rating [5, 15]: 0; Velvetleaf plant response rating [6, 14]: 50; Velvetleaf plant response rating [6, 15]: 0; Wheat plant response rating [7, 14]: 0; Wheat plant response rating [7, 15]: 0; Corn plant response rating (corn (Zea mays); [14]): 10; Corn plant response rating (corn (Zea mays); [15]): 0 |
| CCc1nn(-c2ccc(C(F)(F)F)cc2)nc1Cn1cnc(C(F)(F)F)c1Cl [Compound 121] | 0 | 0 | 0 | 10 | 0 | 0 | 0 | 0 | 0 | 20 | 0 | 10 | 0 | 0 | 0 | 10 | 0 | 0 | 0 | 0 | Plant response rating, Barnyardgrass [1, 12]: 0; Plant response rating, Barnyardgrass [1, 13]: 0; Plant response rating, Crabgrass, Large [2, 12]: 0; Plant response rating, Crabgrass, Large [2, 13]: 10; Plant response rating, Foxtail, Giant [3, 13]: 0; Plant response rating, Morningglory [4, 13]: 0; Plant response rating, Pigweed [5, 13]: 0; Plant response rating, Velvetleaf [6, 13]: 0; Plant response rating, Wheat [7, 12]: 0; Plant response rating, Wheat [7, 13]: 0; Plant response rating, Corn (corn (Zea mays); [12]): 0; Plant response rating, Corn (corn (Zea mays); [13]): 0 |
| Cc1nn(-c2ccc(C(F)(F)F)cc2)nc1Oc1cc(C(F)(F)F)nn1C [Compound 104] | 20 | 30 | 50 | 70 | 20 | 50 | 60 | 90 | 70 | 100 | 30 | 60 | 0 | 0 | 10 | 20 | 60 | 0 | 30 | 0 | Plant response rating, Barnyardgrass [1, 10]: 10; Plant response rating, Barnyardgrass [1, 11]: 20; Plant response rating, Crabgrass, Large [2, 10]: 60; Plant response rating, Crabgrass, Large [2, 11]: 90; Plant response rating, Foxtail, Giant [3, 11]: 90; Plant response rating, Morningglory [4, 11]: 0; Plant response rating, Pigweed [5, 11]: 90; Plant response rating, Velvetleaf [6, 11]: 30; Plant response rating, Wheat [7, 12]: 0; Plant response rating, Wheat [7, 11]: 0; Plant response rating, Corn (corn (Zea mays); [10]): 0; Plant response rating, Corn (corn (Zea mays); [11]): 0 |
